Data as given in US9968084B2, “Synergistic herbicidal composition containing penoxsulam, triclopyr and imazethapyr” (Dow AgroSciences LLC, priority 2011, dated 2018).

Key:
Experiment in all cases: Postemergence herbicidal activity of mixtures in the field (rice), visual weed control
Type in all cases: in vivo
[1] = system: Brachiaria platyphylla (GRISEB.) NASH (BRAPP); details: imazamox 44 g ai/ha
Procedure: (§1) Evaluation of Postemergence Herbicidal Activity of Mixtures in the Field
(§2) Field trials were conducted in rice using standard herbicide small plot research methodology. Plot size was 2×6 meter (m) with 4 replicates per treatment. The rice crop was grown using normal cultural practices for fertilization, seeding, watering, flooding and maintenance to ensure good growth of the crop and the weeds.
(§3) All treatments in the field trials were applied using a compressed air backpack sprayer calibrated to apply 187 liters per hectare (L/ha) spray volume. Commercially available products of the premix penoxsulam plus triclopyr (GraspXTRA® herbicide, trademark of Dow AgroSciences LLC) and imazethapyr or imazamox were mixed in water at appropriately formulated product rates to achieve the desired rates based on a unit area of application (hectare) to achieve the desired rates as shown. The GraspXTRA herbicide is a product that contains 0.25 lb penoxulam and 2.06 lb triclopyr triethylamine salt (1.5 lb acid equivalent) per gallon, so the weight ratio of the penoxulam to triclopyr acid equivalent is 1:6. Imazethapyr was used as Newpath 240 SL. imazamox was used as Beyond 120 SL. Treatments were rated at 15 to 63 days after application as compared to the untreated control plants. Visual weed control was scored on a scale of 0 to 100 percent where 0 corresponds to no injury and 100 corresponds to complete kill.
(§4) All treatment results, both for the single premix product, the single entity product and mixtures, are an average of 4 replicates and the tank mix interactions are significant at the […] level.
(§5) Colby's equation was used to determine the herbicidal effects expected from the mixtures (Colby, S. R. Calculation of the synergistic and antagonistic response of herbicide combinations. Weeds 1967, 15, 20-22.).
(§6) The following equation was used to calculate the expected activity of mixtures containing two active ingredients, A and B: Expected=A+B−(A×B/100)
(§7) A=observed efficacy of active ingredient A at the same concentration as used in the mixture.
(§8) B=observed efficacy of active ingredient B at the same concentration as used in the mixture.
(§9) All comparisons are an average of 4 replicates and are significant at the […] level. Rates of penoxsulam, triclopyr and imazethapyr or imazamox are expressed in grams active ingredient/hectare (g ai/ha).

[2] = system: Caperonia palustris ST.-HIL. (CNPPA); details: imazamox 44 g ai/ha
Procedure: as §1, §2, §3, §4, §5, §6, §7, §8, §9

[3] = system: Echinochloa crus-galli (ECHCG)
Procedure: as §1, §2, §3, §4, §5, §6, §7, §8, §9

Setaria spp. (SETSS) = details: imazethapyr 70 g ai/ha
Procedure: as §1, §2, §3, §4, §5, §6, §7, §8, §9

SMILES	% Control 41 DAA BRAPP Ob [1]	% Control 43 DAA CNPPA Ob [2]	% Control 43 DAA ECHCG Ob ([3]; imazamox 44 g ai/ha, 43 DAA)	% Control 15DAA ECHCG Ob ([3]; imazethapyr 70 g ai/ha, 15 DAA)	% Control 63DAA ECHCG Ob ([3]; imazethapyr 70 g ai/ha, 63 DAA)	% Control 15DAA SETSS Ob (Setaria spp. (SETSS); 15 DAA)	% Control 63DAA SETSS Ob (Setaria spp. (SETSS); 63 DAA)
COCc1cnc(C2=NC(C)(C(C)C)C(=O)N2)c(C(=O)O)c1 (stereo not shown) [Imazamox, 2-[4,5-dihydro-4-methyl-4-(1-methylethyl)-5-oxo-1H-imidazol-2-yl]-5-(methoxymethyl)-3-pyridinecarboxylic acid]	61%	0%	78%				
CCc1cnc(C2=NC(C)(C(C)C)C(=O)N2)c(C(=O)O)c1 (stereo not shown) [Imazethapyr, 2-[4,5-dihydro-4-methyl-4-(1-methylethyl)-5-oxo-1H-imidazol-2-yl]-5-ethyl-3-pyridinecarboxylic acid]				69%	36%	69%	36%
